Experimental data reported in US20240050422A1, “DRUG DELIVERY VIA MONOACYLGLYCEROL AND FREE FATTY ACID-BASED COMPOSITIONS” (GLYCOSBIO, INC., priority 2021, published 2024).
Like-named read-outs stand apart in the source and are kept apart here.

Experiments:
[1] = cited from earlier work
[2] = at 3 hours; 0.5 mg/mL
Method: Approximately 1 mL of bupivacaine solution (0.5 mg/mL in water) or bupivacaine nanoemulsion (0.5 mg/mL in nS100) were added to the donor chamber. At each time point, 70 μL was removed from the receiver chamber and replaced with an equivalent volume of fresh PBS to maintain constant volume. The aliquot from each time point was analyzed by HPLC to determine amount of drug permeating through the membrane over time. The HPLC system consisted of an LC-20AD pump, SIL-20AC HT autosampler, CTO-20A column oven, and SPD-20A UV/vis detector (Shimadzu Scientific Instruments, Inc.). HPLC conditions were: 30 μL injection volume, isocratic elution of mobile phase consisting of 75% methanol and 25% 10 mM sodium phosphate buffer (pH 7.8), flow rate of 1.000 mL/min, column temperature of 40° C., and detection at 263 nm.

[3] = over 7 hours; 1 mg/mL, pH 5-6
Method: At each time point, 80 μL was removed from the receiver chamber and replaced with an equivalent volume of fresh PBS to maintain constant volume. The aliquot from each time point was analyzed by HPLC to determine amount of drug permeating through the membrane over time. The HPLC system consisted of an LC-20AD pump, SIL-20AC HT autosampler, CTO-20A column oven, and SPD-20A UV/vis detector (Shimadzu Scientific Instruments, Inc.). HPLC conditions were: 30 μL injection volume, isocratic elution of mobile phase consisting of 50% methanol and 50% phosphoric acid (0.1%), flow rate of 1.000 mL/min, column temperature of 40° C., and detection at 275 nm.

[4] = over 24 hours; 10 mg/mL
Method: Sesame EMO nanoemulsion (nS50) was prepared from a combination of sesame EMO and FFA oil. Sesame EMO (0.852 g) and sesame FFA (0.648 g) were weighed into a 50 mL metal beaker and heated to 60° C. A coarse emulsion was prepared by adding 13.5 mL water (pre-heated to 60° C.) to the oil. The mixture was subjected to high-sheer homogenizer for 30 seconds, resulting in a milky coarse emulsion. The coarse emulsion was then transferred to QSonica Q700CA sonicator with ½ inch probe. The emulsion was processed for 2 cycles (5 minutes sonication/2 minutes cooling) at 90% power. […] At each time point, 70 μL was removed from the receiver chamber and replaced with an equivalent volume of fresh PBS to maintain constant volume. The aliquot from each time point was analyzed by HPLC to determine amount of drug permeating through the membrane over time. The HPLC system consisted of an LC-20AD pump, SIL-20AC HT autosampler, CTO-20A column oven, and SPD-20A UV/vis detector (Shimadzu Scientific Instruments, Inc.). HPLC conditions were: 30 μL injection volume, isocratic elution of mobile phase consisting of 60% methanol and 40% phosphoric acid (0.1%), flow rate of 1.000 mL/min, column temperature of 40° C., and detection at 210 nm.

[5] = 10 mg/mL
Method: Sesame EMO nanoemulsion (nS50) was prepared from a combination of sesame EMO and FFA oil. Sesame EMO (0.852 g) and sesame FFA (0.648 g) were weighed into a 50 mL metal beaker and heated to 60° C. A coarse emulsion was prepared by adding 13.5 mL water (pre-heated to 60° C.) to the oil. The mixture was subjected to high-sheer homogenizer for 30 seconds, resulting in a milky coarse emulsion. The coarse emulsion was then transferred to QSonica Q700CA sonicator with ½ inch probe. The emulsion was processed for 2 cycles (5 minutes sonication/2 minutes cooling) at 90% power. Approximately 1 mL of trifluoroacetyl tripeptide-2 (Cayman Chemical Company) solution (10 mg/mL in 10% DMSO in water) or trifluoroacetyl tripeptide-2 nanoemulsion (10 mg/mL in 10% DMSO in nS50) were added to the donor chamber. At each time point, 70 μL was removed from the receiver chamber and replaced with an equivalent volume of fresh PBS to maintain constant volume. The aliquot from each time point was analyzed by HPLC to determine amount of drug permeating through the membrane over time.

**Q.** For `C=C(C)[C@@H]1CCC(C)=C[C@H]1c1c(O)cc(CCCCC)cc1O` [CBD, cannabidiol], which solubility in water [1] is on record?
**A.** essentially insoluble in water

**Q.** For `CCCCN1CCCCC1C(=O)Nc1c(C)cccc1C` (stereo not drawn) [free drug control (bupivacaine), bupivacaine], which bupivacaine permeation [2] is on record?
**A.** undetectable permeation

**Q.** Which salicylic acid permeation [3] does the source give for `O=C(O)c1ccccc1O` [free drug control (salicylic acid), salicylic acid] here?
**A.** no salicylic acid permeation

**Q.** Which hexapeptide-11 permeation [4] does the source give for “hexapeptide-11 [free peptide control (hexapeptide-11)]” here?
**A.** no peptide permeation

**Q.** Which “trifluoroacetyl tripeptide-2 permeation” value ([5]; after 24 hours) does the source give for trifluoroacetyl tripeptide-2 here?
**A.** 1.1 ug/cm^2

**Q.** And the “trifluoroacetyl tripeptide-2 permeation” value ([5]; at 6 hours)?
**A.** no peptide permeation
